The values below are quoted from earlier work in patent publication US8759371B2, “Heterocyclic compounds and their uses” (Amgen Inc., priority 2010, dated 2014).

Data set [1] deals with systemic lupus erythematosis model. The following applies: in vivo.
In data set [2] the test system is rheumatoid arthritis model. The following applies: in vivo.
A further data set addresses T1, p110δ (Homo sapiens, UniProt O00329).
T1 sequence (O00329 1-1044): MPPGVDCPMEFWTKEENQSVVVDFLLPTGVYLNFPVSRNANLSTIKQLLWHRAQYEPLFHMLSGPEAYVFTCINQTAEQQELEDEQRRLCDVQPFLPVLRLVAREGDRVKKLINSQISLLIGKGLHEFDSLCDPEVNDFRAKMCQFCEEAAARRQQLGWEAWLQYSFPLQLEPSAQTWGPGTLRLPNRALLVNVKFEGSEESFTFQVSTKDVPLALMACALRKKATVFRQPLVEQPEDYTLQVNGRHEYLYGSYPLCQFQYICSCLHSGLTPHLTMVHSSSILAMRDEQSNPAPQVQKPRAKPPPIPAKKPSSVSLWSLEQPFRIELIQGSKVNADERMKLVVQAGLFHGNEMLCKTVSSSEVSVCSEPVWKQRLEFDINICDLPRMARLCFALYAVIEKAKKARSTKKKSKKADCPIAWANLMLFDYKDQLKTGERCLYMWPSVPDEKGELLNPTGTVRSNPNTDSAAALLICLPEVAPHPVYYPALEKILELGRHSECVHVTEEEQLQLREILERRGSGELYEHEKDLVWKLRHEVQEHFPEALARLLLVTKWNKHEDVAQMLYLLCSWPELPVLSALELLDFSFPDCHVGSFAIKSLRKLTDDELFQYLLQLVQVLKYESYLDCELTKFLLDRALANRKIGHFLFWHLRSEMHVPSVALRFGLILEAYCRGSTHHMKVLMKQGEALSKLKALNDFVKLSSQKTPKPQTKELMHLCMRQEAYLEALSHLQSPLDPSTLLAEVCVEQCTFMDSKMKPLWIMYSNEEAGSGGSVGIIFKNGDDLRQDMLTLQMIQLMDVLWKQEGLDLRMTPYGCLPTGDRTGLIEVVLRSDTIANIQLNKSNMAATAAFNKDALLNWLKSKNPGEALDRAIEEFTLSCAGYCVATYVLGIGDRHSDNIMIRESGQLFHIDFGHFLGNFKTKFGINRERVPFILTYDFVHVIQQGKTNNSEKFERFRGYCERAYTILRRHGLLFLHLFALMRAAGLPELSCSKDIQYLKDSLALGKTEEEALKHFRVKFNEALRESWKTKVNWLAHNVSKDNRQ

Data set [3] relates to ovalbumin-induced airway inflammation.
In data set [4] the test system is passive cutaneous anaphylaxis (PCA). The following applies: absence of functional delta (IC 87114 and p110δ D910A mice).

`O=C1NC(=O)/C(=C\c2ccc3nccnc3c2)S1` [AS 605240]: in data set [1], the “onset of disease in model of systemic lupus erythematosis” value is recorded as “delay onset of disease”. Also, in data set [2], the “efficacy in mouse model of rheumatoid arthritis” value is “efficacious”.

For the compound `Cc1ccccc1-n1c(Cn2cnc3c(N)ncnc32)nc2cccc(C)c2c1=O` [IC87114], the “inhibits p110δ” value at p110δ was “high nanomolar range (triple digit)”. The “inflammation and disease in murine model of asthma” value in data set [3] was “significantly ameliorate inflammation and disease”. Also, in the data set with protein kinases, the “activity against any protein kinases tested” value is recorded as “no activity”. The “passive cutaneous anaphylaxis (PCA)” value in data set [4] is reported as “significantly reduced”.
